Assay results as given in patent publication US6608051B1, “Compositions and methods for treating blood” (MedPointe Healthcare Inc., priority 1999, dated 2003).

Tests used:
[1] = stability in the solid state; format: physicochemical; conditions: stored at ambient conditions
[2] = apparent partition coefficient between octanol and water; format: physicochemical; conditions: buffered at pH 7.2
[3] = solubility in aqueous solutions and organic solvents; format: physicochemical
[4] = cited from earlier work
[5] = pH of a saturated solution in deionized water; format: physicochemical

Which results are given for `O=S1(=O)CCN(CN2CCS(=O)(=O)NC2)CN1` [taurolidine, 4,4′-methylenebis(tetrahydro-1,2,4-thiadiazine)-1,1,1′,1′,-tetraoxide]?
stability in the solid state [1]: acceptable stability; apparent partition coefficient between octanol and water [2]: approximately 0.13; solubility ([3]; CHCl3): insoluble; solubility ([3]; Dilute HCl): soluble; solubility ([3]; Dilute NaOH): soluble; solubility ([3]; EtOH): sparingly soluble; solubility ([3]; Water, at 20° C.): 1% at 20 °C; cumulative dose shown to be safe and well tolerated ([4]; cumulative doses, up to and exceeding): ≥ 300 g; systemic dose shown to be safe and well tolerated ([4]; systemic doses): exceeding 40 g/day; pH of a saturated solution [5]: 7.4
